Experimental data: patent publication US4127687A, “Prevention of fouling of marine structures such as boat hulls” (Rohm and Haas Company, priority 1976, dated 1978)
≈ marks a conversion by molar mass, not a printed value. Like-named read-outs stand apart in the source and are kept apart here.

Experiments:
[1] = tested on: weed; assay: Membrane Diffusion Raft Trials, weed control; type: in vivo, grass-like algal growth common in sea water; settings: membrane test, average 15 to 16 weeks of immersion
Description: (§1) 1). FIELD TESTS: - Membrane Diffusion Raft Trials
(§2) A specially constructed raft provides three types
(§3) a). Waterline Well illuminated, aerated
(§4) b). Flats Poorly illuminated deeper
(§5) A known quantity of the test compound is placed into a cylindrical plastic container whose open end is then covered with a membrane of known porosity; the complete unit is attached to the appropriate raft panel so that the poison can freely diffuse into the free water layer around it. Regular inspections, recording time and quantity of settlement, allow a life history of each membrane trial to be constructed. Each raft panel contains 35 compounds to be evaluated together with 4 standard poisons and 1 non-toxic membrane for control.
(§6) The behavior on the raft can thus be compared with that of the standard poisons and the non-toxic control. At normal loading a membrane over the standard poisons would be free from macro-fouling after six months immersion. Compounds showing selective effects against restricted groups of fouling organisms also show up by membrane testing.
(§7) After the completion of membrane tests the contents of all containers are checked visually for poison loss. An empty container indicates an unacceptably high solubility for long term effectiveness; where the poison loss is low the compound is tested in one of two ways depending on its performance against fouling.
(§8) In the membrane tests, the results of approximately 140 compounds evaluated appear in Table 1. The symbols "0" means no detactable effect, the symbol "+" indicates the compound is active against the given fouling organism, and the symbol "++" means that the compound appears to be effective over at least about a four month period for essentially preventing fouling activity by the given organism. In the Table, "weed" designates a grass-like algal growth common in sea water.
(§9) Membrane Test results are of an average 15 to 16 weeks of immersion,
(§10) ^a 0 = none, + = some, + + = effective.

[2] = tested on: barnacle; assay: Membrane Diffusion Raft Trials, barnacle control; type: in vivo, barnacles; settings: membrane test, average 15 to 16 weeks of immersion
Description: as §1, §2, §3, §4, §5, §6, §7, §8, §9, §10
^f The 1975 Spring settlement of barnacles was very meager and the […]

[3] = Amount of toxicant remaining in the test container after membrane diffusion raft tests; type: physicochemical; design: key: 0: empty or trace; +: some; + +: ample; settings: after completion of membrane diffusion raft tests
Description: as §5, §7
^b Amount of toxicants remaining in the test container after the
completion of the membrane diffusion raft tests: 0 = empty or trace, + =

[4] = tested on: Enteromorpha spores; assay: Laboratory toxicity test (Lab Bioassay) with Enteromorpha spores; type: in vivo; settings: using Enteromorpha spores
Description: Standard laboratory toxicity tests use Enteromorpha spores (zoospores or gametes) but Ectocarpus spores and barnacle nauplii may also be used. During the spore tests additional information on the control of bacterial and diatom slimes becomes available since these organisms are unavoidably introduced with the spore inoculum.
More detailed laboratory toxicity tests on promising compounds determine LD50 values as percentage saturated solution.
^c Using Enteromorpha spores.

[5] = Water solubility by UV spectrophotometric method; type: physicochemical; settings: water
Protocol: The water solubilities of several isothiazolones were determined by UV spectrophotometric measurements of saturated aqueous solution of each compound in comparison with measurement of solutions of carefully prepared known concentration as outlined in the following example.
DETERMINATION OF SOLUBILITY OF 5-CHLORO-2-(4-FLUOROPHENYL)-4-METHYL-3-ISOTHIAZOLONE OF EXAMPLE 115
A sample of 5-chloro-2-(4-fluorophenyl)-4-methyl-3-isothiazolone (0.0406 g., 1.67 × 10^-4 mole) was dissolved in 50 ml. of methanol. A 5 ml. aliquot of the solution was diluted to 1000 ml. with deionized water, providing a solution of 1.67 × 10^-5 moles/liter concentration. An ultraviolet spectrum of this solution was run using a 10 cm. cell. The absorbance (As) at the wave length of maximum absorption (279 nm.) was 1.208. The molar absorptivity, AM, was calculated from the relationship
where b and c are path length or cell thickness and concentration respectively. Thus, AM was [formula]
Another sample of the compound (0.3-0.5 g.) was stirred vigorously in 40 ml. of deionized water for approximately 72 hrs. to give a saturated solution. The mixture was filtered through very fine filter paper (Whatman No. 50) to remove all suspended solid. Small portions of the filtrate were diluted with water by various factors until an approximately mid-scale absorbance was obtained upon running an ultraviolet spectrum. Such an absorbance was obtained at a dilution of 10. The absorbance was 0.975 in a 10 cm. cell. Using the value for AM obtained earlier, in the equation

[6] = saturated solution, Table 1, read-out: Solubility by UV method

## O=c1c(Cl)c(Cl)sn1CCc1ccccc1 [Example 69]
[1]
  Weed Control: + +
[2]
  Barnacle Control: 0
[3]
  Contents at the end of test (amount of toxicants remaining in the test container): + +
[4]
  Lab Bioassay LD50: 0.01 percentage saturated solution
[5]; [6]
  solubility: 22 µg/mL (≈ 80.2 µM)

## Cc1c(Cl)sn(-c2ccc(Cl)cc2)c1=O [Example 114]
[1]
  Weed Control: + +
[2]
  Barnacle Control: + +
[3]
  Contents at the end of test (amount of toxicants remaining in the test container): + +
[4]
  Lab Bioassay LD50: 0.008 percentage saturated solution
[5]; [6]
  solubility: 14 µg/mL (≈ 53.8 µM)

## COc1c(Cl)cccc1-n1sc(Cl)cc1=O [Example 42]
[1]
  Weed Control: + +
[2]
  Barnacle Control: +
[3]
  Contents at the end of test (amount of toxicants remaining in the test container): + +
[4]
  Lab Bioassay LD50: 0.03 percentage saturated solution
[5]; [6]
  solubility: 45 µg/mL (≈ 163 µM)

## Cc1c(Cl)cccc1-n1sc(Cl)c(Cl)c1=O [Example 78]
[1]
  Weed Control: + +
[2]
  Barnacle Control: 0
[3]
  Contents at the end of test (amount of toxicants remaining in the test container): +
[4]
  Lab Bioassay LD50: 0.08 percentage saturated solution
[5]; [6]
  solubility: 3.7 µg/mL (≈ 12.6 µM)

## O=c1c(Cl)c(Cl)sn1-c1ccc(Cl)cc1 [Example 75]
[1]
  Weed Control: + +
[2]
  Barnacle Control: 0
[3]
  Contents at the end of test (amount of toxicants remaining in the test container): + +
[4]
  Lab Bioassay LD50: 0.006 percentage saturated solution
[5]; [6]
  solubility: 3 µg/mL (≈ 10.7 µM)

## O=c1c(Br)csn1Cc1ccc(Cl)cc1 [Example 53]
[1]
  Weed Control: + +
[2]
  Barnacle Control: +
[3]
  Contents at the end of test (amount of toxicants remaining in the test container): + +
[4]
  Lab Bioassay LD50: 0.1 percentage saturated solution
[5]; [6]
  solubility: 18 µg/mL (≈ 59.1 µM)

## COc1c(Cl)cccc1-n1sc(Cl)c(Cl)c1=O [Example 79]
[1]
  Weed Control: + +
[2]
  Barnacle Control: +
[3]
  Contents at the end of test (amount of toxicants remaining in the test container): + +
[4]
  Lab Bioassay LD50: 0.065 percentage saturated solution
[5]; Table 1 solubility column
  Solubility by UV method: rapidly decomposes (remark): rapidly decomposes

## O=c1c(Br)c(Cl)sn1Cc1ccc(Cl)cc1 [Example 91]
[1]
  Weed Control: + +
[2]
  Barnacle Control: 0
[3]
  Contents at the end of test (amount of toxicants remaining in the test container): +
[4]
  Lab Bioassay LD50: 0.02 percentage saturated solution
[5]; [6]
  solubility: 3.3 µg/mL (≈ 9.73 µM)

## O=c1c(Cl)c(Cl)sn1-c1ccccc1 [Example 74]
[1]
  Weed Control: + +
[2]
  Barnacle Control: + +
[3]
  Contents at the end of test (amount of toxicants remaining in the test container): + +
[4]
  Lab Bioassay LD50: 0.03 percentage saturated solution
[5]; [6]
  solubility: 8 µg/mL (≈ 32.5 µM)

## Cc1c(Cl)sn(CCc2ccccc2)c1=O [Example 108]
[1]
  Weed Control: 0
[2]
  Barnacle Control: + +
[3]
  Contents at the end of test (amount of toxicants remaining in the test container): +
[4]
  Lab Bioassay LD50: > 1 percentage saturated solution
[5]; [6]
  solubility: 155 µg/mL (≈ 611 µM)

## CC(C)(C)CC(C)(C)n1sc(Cl)c(Cl)c1=O [Example 59]
[1]
  Weed Control: + +
[2]
  Barnacle Control: +
[3]
  Contents at the end of test (amount of toxicants remaining in the test container): + +
[4]
  Lab Bioassay LD50: 0.006 percentage saturated solution
[5]; [6]
  solubility: 38 µg/mL (≈ 135 µM)

## O=c1c(Cl)c(Cl)sn1C1CCCCC1 [Example 67]
[1]
  Weed Control: + +
[2]
  Barnacle Control: + +
[3]
  Contents at the end of test (amount of toxicants remaining in the test container): +
[4]
  Lab Bioassay LD50: 0.3 percentage saturated solution
[5]
  solubility: 48 µg/mL (≈ 190 µM)

## O=c1c(Br)c(Br)sn1C1CCCCC1 [Example 98]
[1]
  Weed Control: + +
[2]
  Barnacle Control: 0
[3]
  Contents at the end of test (amount of toxicants remaining in the test container): +
[4]
  Lab Bioassay LD50: 0.02 percentage saturated solution
[5]; [6]
  solubility: 6.4 µg/mL (≈ 18.8 µM)

## Cc1ccccc1-n1sc(Cl)c(C)c1=O [Example 118]
[1]
  Weed Control: + +
[2]
  Barnacle Control: 0
[3]
  Contents at the end of test (amount of toxicants remaining in the test container): +
[4]
  Lab Bioassay LD50: 0.15 percentage saturated solution

## CCCCC(CC)Cn1sc(Cl)c(Cl)c1=O (stereo not shown) [Example 58]
[1]
  Weed Control: + +
[2]
  Barnacle Control: + +
[3]
  Contents at the end of test (amount of toxicants remaining in the test container): +
[4]
  Lab Bioassay LD50: 0.0024 percentage saturated solution
[5]; [6]
  solubility: 30 µg/mL (≈ 106 µM)

## O=c1cc(Cl)sn1-c1ccc(I)cc1 [Example 36]
[1]
  Weed Control: + +
[2]
  Barnacle Control: 0
[3]
  Contents at the end of test (amount of toxicants remaining in the test container): + +
[4]
  Lab Bioassay LD50: 0.08 percentage saturated solution

## Cc1ccc(-n2sc(Cl)c(C)c2=O)cc1C [Example 122]
[1]
  Weed Control: + +
[2]
  Barnacle Control: + +
[3]
  Contents at the end of test (amount of toxicants remaining in the test container): + +
[4]
  Lab Bioassay LD50: 0.01 percentage saturated solution

## Cc1c(Cl)sn(-c2cccc(Cl)c2)c1=O [Example 113]
[1]
  Weed Control: + +
[2]
  Barnacle Control: +
[3]
  Contents at the end of test (amount of toxicants remaining in the test container): + +
[4]
  Lab Bioassay LD50: 0.013 percentage saturated solution
[5]; [6]
  solubility: 13 µg/mL (≈ 50 µM)

## Cc1c(Cl)sn(-c2ccc(I)cc2)c1=O [Example 117]
[1]
  Weed Control: +
[2]
  Barnacle Control: + +
[3]
  Contents at the end of test (amount of toxicants remaining in the test container): + +
[4]
  Lab Bioassay LD50: 0.2 percentage saturated solution

## Cc1cccc(-n2sc(Cl)c(C)c2=O)c1 [Example 119]
[1]
  Weed Control: + +
[2]
  Barnacle Control: 0
[3]
  Contents at the end of test (amount of toxicants remaining in the test container): + +
[4]
  Lab Bioassay LD50: 0.1 percentage saturated solution

## CCOC(=O)c1ccc(-n2sc(Cl)c(C)c2=O)cc1 [Example 126]
[1]
  Weed Control: +
[2]
  Barnacle Control: + +
[3]
  Contents at the end of test (amount of toxicants remaining in the test container): + +
[4]
  Lab Bioassay LD50: 0.13 percentage saturated solution

## CCCCCCCCCCCCCCCCCCn1sc(Cl)cc1=O [Example 26]
[1]
  Weed Control: 0
[2]
  Barnacle Control: 0
[3]
  Contents at the end of test (amount of toxicants remaining in the test container): + +
[4]
  Lab Bioassay LD50: 1.0 percentage saturated solution

## CCCCCCCCCCn1scc(Br)c1=O [Example 49]
[1]
  Weed Control: + +
[2]
  Barnacle Control: 0
[3]
  Contents at the end of test (amount of toxicants remaining in the test container): +
[4]
  Lab Bioassay LD50: 0.01 percentage saturated solution

## O=c1cc(Cl)sn1-c1ccc(Br)cc1 [Example 35]
[1]
  Weed Control: + +
[2]
  Barnacle Control: 0
[3]
  Contents at the end of test (amount of toxicants remaining in the test container): + +
[4]
  Lab Bioassay LD50: 0.22 percentage saturated solution

## CCCCC(CC)Cn1sc(Cl)cc1=O (stereo not shown) [Example 17]
[1]
  Weed Control: + +
[2]
  Barnacle Control: + +
[3]
  Contents at the end of test (amount of toxicants remaining in the test container): 0
[4]
  Lab Bioassay LD50: .013 percentage saturated solution
[5]; [6]
  solubility: 135 µg/mL (≈ 545 µM)

## COc1cc(Cl)ccc1-n1sc(Cl)cc1=O [Example 41]
[1]
  Weed Control: + +
[2]
  Barnacle Control: +
[3]
  Contents at the end of test (amount of toxicants remaining in the test container): + +
[4]
  Lab Bioassay LD50: 0.03 percentage saturated solution
[5]; [6]
  solubility: 55 µg/mL (≈ 199 µM)

## O=c1c(Br)c(Cl)sn1-c1ccc(Cl)cc1 [Example 93]
[1]
  Weed Control: + +
[2]
  Barnacle Control: + +
[3]
  Contents at the end of test (amount of toxicants remaining in the test container): + +
[4]
  Lab Bioassay LD50: 0.012 percentage saturated solution
[5]; [6]
  solubility: 1.72 µg/mL (≈ 5.29 µM)

## Cc1c(Cl)sn(-c2ccccc2C(F)(F)F)c1=O [Example 128]
[1]
  Weed Control: + +
[2]
  Barnacle Control: 0
[3]
  Contents at the end of test (amount of toxicants remaining in the test container): +
[4]
  Lab Bioassay LD50: 0.6 percentage saturated solution
